The values below come from patent US9518046B2 (Calitor Sciences, LLC, priority 2015, dated 2016).

Data set [1] can be described thus: Compound stability in human liver microsomes. The data set is classed as in vitro ADME. As to conditions: for half-life at 5 μM: human liver microsomes 0.5 mg protein/mL, compound 5 μM, NADPH 1.0 mM, pH 7.4, 37° C., read-out: Human T1/2; for CLint scaled at 5 μM: liver microsomes, pH 7.4, in vivo CLint extrapolated from human liver microsome incubation. How it is done:
(§1) Human or rat liver microsomes incubations were conducted in duplicate in polypropylene tubes. The typical incubation mixtures consisted of human or rat liver microsomes (0.5 mg protein/mL), compounds of interest (5 μM) and NADPH (1.0 mM) in a total volume of 200 μL potassium phosphate buffer (PBS, 100 mM, pH 7.4). Compounds were dissolved in DMSO and diluted with PBS such that the final concentration of DMSO was 0.05%. The enzymatic reactions were commenced with the addition of protein after a 3-min preincubation and incubated in a water bath open to the air at 37° C. Reactions were terminated at various time points (0, 5, 10, 15, 30, 60 min) by adding equal volume of ice-cold acetonitrile. The samples were stored at −80° C. until LC/MS/MS assays.
(§2) The concentrations of compounds in the incubation mixtures of human or rat liver microsomes were determined by a LC/MS/MS method. The ranges of the linearity in the concentration range were determined for each tested compounds.
(§3) A parallel incubation was performed using denatured microsomes as the negative control, and reactions were terminated at various time points (0, 15, 60 min) after incubation at 37° C.
(§4) Dextromethorphan (70 μM) was selected as the positive control, and reactions were terminated at various time points (0, 5, 10, 15, 30, 60 min) after incubation at 37° C. Both positive and negative control samples were included in each assay to ensure the integrity of the microsomal incubation system.
(§5) The concentrations of compounds in human or rat liver microsome incubations were plotted as a percentage of the relevant zero time point control for each reaction. The in vivo CLint were extrapolated (ref.: Naritomi, Y.; Terashita, S.; Kimura, S.; Suzuki, A.; Kagayama, A.; and Sugiyama, Y.; Prediction of human hepatic clearance from in vivo animal experiments and in vitro metabolic studies with liver microsomes from animals and humans. Drug Metab. Dispos., 2001, 29: 1316-1324).

A short description of data set [2]: Pharmacokinetics after intravenous and oral administration in rats. The data set is classed as in vivo. As to conditions: for CL/F / bioavailability: Rats; for CL/F: iv dosing, dose 1 mg/kg (0.5 for Ex. 1, 10, 11, 35; 0.48 for Ex. 24); for AUC(0-t) / half-life / Vd / bioavailability: rat, plasma; for AUC(0-t) / half-life / Vd: iv, 1 mg/kg; for Vd: read-out: Vss; for bioavailability: oral (p.o.) generally 5 or 10 mg/kg versus iv dosing. The gist of the method: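 Dosing used solution, suspension or capsule formulations: 1 or 2 mg/kg IV in all species; PO 5 or 10 mg/kg in mice and rats, 10 mg/kg in dogs and monkeys. Plasma sampled from 0.083 or 0.25 h up to 24 h post-dose; concentrations determined by LC/MS/MS in MRM mode.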

The target of the next data set is T1, PI3K (p110α/p85α) (h) (Homo sapiens, UniProt P42336).
T1 construct: purchased Millipore UK Ltd
T1 sequence (P42336 whole entry): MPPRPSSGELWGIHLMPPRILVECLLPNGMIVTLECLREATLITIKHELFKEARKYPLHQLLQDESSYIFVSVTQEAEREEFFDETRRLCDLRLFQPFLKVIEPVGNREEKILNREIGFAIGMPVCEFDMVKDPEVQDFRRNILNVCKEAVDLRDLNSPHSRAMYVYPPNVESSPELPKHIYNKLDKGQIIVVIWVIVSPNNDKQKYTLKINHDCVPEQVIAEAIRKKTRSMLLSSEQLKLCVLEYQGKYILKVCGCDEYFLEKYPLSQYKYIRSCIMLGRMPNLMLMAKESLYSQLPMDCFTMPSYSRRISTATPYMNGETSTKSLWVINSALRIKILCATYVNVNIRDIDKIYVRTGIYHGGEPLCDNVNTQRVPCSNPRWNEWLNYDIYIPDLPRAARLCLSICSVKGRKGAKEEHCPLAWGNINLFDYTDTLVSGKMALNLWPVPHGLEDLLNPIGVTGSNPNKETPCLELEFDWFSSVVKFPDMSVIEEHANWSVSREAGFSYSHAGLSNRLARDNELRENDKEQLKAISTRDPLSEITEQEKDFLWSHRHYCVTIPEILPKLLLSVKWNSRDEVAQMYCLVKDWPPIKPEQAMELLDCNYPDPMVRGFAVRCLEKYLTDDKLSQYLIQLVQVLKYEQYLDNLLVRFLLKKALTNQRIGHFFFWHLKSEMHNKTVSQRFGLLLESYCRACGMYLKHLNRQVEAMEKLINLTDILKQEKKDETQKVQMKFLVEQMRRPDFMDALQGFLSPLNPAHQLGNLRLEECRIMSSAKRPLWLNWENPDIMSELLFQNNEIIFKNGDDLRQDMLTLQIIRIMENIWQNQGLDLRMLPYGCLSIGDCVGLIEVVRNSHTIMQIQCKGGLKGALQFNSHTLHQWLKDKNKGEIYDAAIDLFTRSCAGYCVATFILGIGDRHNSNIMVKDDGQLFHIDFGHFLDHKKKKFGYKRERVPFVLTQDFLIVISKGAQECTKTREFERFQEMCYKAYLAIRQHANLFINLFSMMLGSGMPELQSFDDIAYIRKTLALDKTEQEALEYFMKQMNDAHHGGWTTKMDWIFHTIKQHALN
T1 sequence (P27986 whole entry partner): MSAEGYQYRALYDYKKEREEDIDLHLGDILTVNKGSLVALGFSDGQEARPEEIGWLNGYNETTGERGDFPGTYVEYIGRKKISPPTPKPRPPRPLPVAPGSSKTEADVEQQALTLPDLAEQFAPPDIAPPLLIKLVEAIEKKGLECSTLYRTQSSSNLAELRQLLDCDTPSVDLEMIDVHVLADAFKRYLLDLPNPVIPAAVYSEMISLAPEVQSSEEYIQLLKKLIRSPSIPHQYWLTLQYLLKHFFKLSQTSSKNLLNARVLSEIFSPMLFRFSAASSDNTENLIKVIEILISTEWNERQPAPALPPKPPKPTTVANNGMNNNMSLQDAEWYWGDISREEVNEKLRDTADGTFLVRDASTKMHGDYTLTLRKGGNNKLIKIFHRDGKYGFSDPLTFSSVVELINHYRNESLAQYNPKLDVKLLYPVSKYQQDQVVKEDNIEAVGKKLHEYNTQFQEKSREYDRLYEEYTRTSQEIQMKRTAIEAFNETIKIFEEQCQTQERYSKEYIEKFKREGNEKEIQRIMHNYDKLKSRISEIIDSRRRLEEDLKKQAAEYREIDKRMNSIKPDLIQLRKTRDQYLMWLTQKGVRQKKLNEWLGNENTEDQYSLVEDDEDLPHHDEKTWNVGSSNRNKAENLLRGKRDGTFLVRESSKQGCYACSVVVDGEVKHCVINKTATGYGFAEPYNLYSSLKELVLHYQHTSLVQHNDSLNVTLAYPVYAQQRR
In words: PI3K (p110α/p85α) (h) non-radioactive HTRF kinase assay. The data set is classed as biochemical. The settings on record: Kinase inhibition data; performed at Millipore UK Ltd. As to the method:
(§6) The above assay procedure can be used to determine the IC50 for inhibition and/or the inhibition constant, Ki.
PI3K (p110α/p85α) (h) [Non-Radioactive Assay]
(§7) PI3K (p110α/p85α) (h) is incubated in assay buffer containing 10 μM phosphatidylinositol 4,5-bisphosphate and MgATP (concentration as required). The reaction is initiated by the addition of the ATP solution. After incubation for 30 minutes at room temperature, the reaction is stopped by the addition of stop solution containing EDTA and biotinylated phosphatidylinositol-3,4,5-trisphosphate. Finally, detection buffer is added, which contains europium-labelled anti-GST monoclonal antibody, GST-tagged GRP1 PH domain and streptavidin allophycocyanin. The plate is then read in timeresolved fluorescence mode and the homogenous time-resolved fluorescence (HTRF) signal is determined according to the formula HTRF=10000×(Em665 nm/Em620 nm).
(§8) The kinase assays described herein were performed at Millipore UK Ltd, Dundee Technology Park, Dundee DD2 1SW, UK.
(In TR-FRET formats the signal depends on donor and acceptor labels being close together.)

The next data set has as its target T2, PI3K (p120γ) (h) (Homo sapiens, UniProt P48736).
T2 construct: purchased Millipore UK Ltd
In words: PI3K (p120γ) (h) non-radioactive HTRF kinase assay. It counts as biochemical. As to conditions: Kinase inhibition data; performed at Millipore UK Ltd. As to the method: as §6
PI3K (p120γ) (h) [Non-Radioactive Assay]
as §7, with “(p120γ)” for “(p110α/p85α)”, “M phosphatidylinositol-4, 5-bisphosphate” for “μM phosphatidylinositol 4,5-bisphosphate”, “MgATP mix.” for “ATP solution.”, “streptavidin-allophycocyanin.” for “streptavidin allophycocyanin.”
as §8

A further data set concerns the target T3, PI3K (p110δ/p85α) (h) (Homo sapiens, UniProt O00329).
T3 construct: purchased Millipore UK Ltd
The experiment in a line: PI3K (p110δ/p85α) (h) non-radioactive HTRF kinase assay. The settings on record: Kinase inhibition data; performed at Millipore UK Ltd. The data set is classed as biochemical. As to the method: as §6
PI3K (p110δ/p85α) (h) [Non-Radioactive Assay]
as §7, with “(p110δ/p85α)” for “(p110α/p85α)”, “phosphatidylinositol-4, 5-bisphosphate” for “phosphatidylinositol 4,5-bisphosphate”, “MgATP mix.” for “ATP solution.”, “streptavidin-allophycocyanin.” for “streptavidin allophycocyanin.”
as §8

Data set [3] can be described thus: Compound stability in rat liver microsomes. It counts as in vitro ADME. As to conditions: for CLint scaled at 5 μM: liver microsomes, pH 7.4, in vivo CLint extrapolated from rat liver microsome incubation; for half-life at 5 μM: rat liver microsomes 0.5 mg protein/mL, compound 5 μM, NADPH 1.0 mM, pH 7.4, 37° C., read-out: Rat T1/2. How it is done: as §1, §2, §3, §4, §5

The next data set has as its target T4, PI3K (h) p110β/p85α (Homo sapiens, UniProt P42338).
T4 construct: purchased Millipore UK Ltd
The experiment in a line: PI3K (p110β/p85α) (h) non-radioactive HTRF kinase assay. It counts as biochemical. The settings on record: Kinase inhibition data; performed at Millipore UK Ltd.

Structures are written as SMILES. pIC50: −log10 of the molar value.

T3 sequence (O00329 whole entry): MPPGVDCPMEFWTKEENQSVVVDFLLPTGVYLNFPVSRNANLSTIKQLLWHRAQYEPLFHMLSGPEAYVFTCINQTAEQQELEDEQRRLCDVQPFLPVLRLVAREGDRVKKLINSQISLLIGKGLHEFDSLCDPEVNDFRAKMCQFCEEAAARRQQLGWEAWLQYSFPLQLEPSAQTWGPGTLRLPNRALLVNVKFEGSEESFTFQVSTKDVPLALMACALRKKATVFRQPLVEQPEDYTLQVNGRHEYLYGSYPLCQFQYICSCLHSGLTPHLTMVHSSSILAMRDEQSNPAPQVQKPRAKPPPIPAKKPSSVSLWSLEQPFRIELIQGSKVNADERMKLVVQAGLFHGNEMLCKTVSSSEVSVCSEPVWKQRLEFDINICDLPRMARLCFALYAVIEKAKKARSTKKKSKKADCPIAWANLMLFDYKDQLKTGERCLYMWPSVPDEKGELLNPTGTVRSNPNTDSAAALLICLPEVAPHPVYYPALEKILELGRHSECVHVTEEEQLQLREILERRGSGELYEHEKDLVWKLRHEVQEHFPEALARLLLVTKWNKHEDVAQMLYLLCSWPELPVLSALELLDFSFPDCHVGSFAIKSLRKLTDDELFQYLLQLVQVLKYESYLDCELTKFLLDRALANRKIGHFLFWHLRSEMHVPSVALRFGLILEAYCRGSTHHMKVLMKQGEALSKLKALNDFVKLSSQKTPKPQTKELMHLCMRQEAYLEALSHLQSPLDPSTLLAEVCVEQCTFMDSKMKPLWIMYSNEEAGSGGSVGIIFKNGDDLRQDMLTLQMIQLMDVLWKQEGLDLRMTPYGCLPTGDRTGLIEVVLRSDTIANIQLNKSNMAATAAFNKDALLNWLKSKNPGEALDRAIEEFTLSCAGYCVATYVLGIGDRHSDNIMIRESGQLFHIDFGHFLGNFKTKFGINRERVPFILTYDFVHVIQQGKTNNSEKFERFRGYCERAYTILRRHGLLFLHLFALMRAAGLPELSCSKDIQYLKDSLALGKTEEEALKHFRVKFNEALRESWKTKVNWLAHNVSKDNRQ
T3 sequence (P27986 whole entry partner): as the sequence (P27986 whole entry partner) above
T4 sequence (P42338 whole entry): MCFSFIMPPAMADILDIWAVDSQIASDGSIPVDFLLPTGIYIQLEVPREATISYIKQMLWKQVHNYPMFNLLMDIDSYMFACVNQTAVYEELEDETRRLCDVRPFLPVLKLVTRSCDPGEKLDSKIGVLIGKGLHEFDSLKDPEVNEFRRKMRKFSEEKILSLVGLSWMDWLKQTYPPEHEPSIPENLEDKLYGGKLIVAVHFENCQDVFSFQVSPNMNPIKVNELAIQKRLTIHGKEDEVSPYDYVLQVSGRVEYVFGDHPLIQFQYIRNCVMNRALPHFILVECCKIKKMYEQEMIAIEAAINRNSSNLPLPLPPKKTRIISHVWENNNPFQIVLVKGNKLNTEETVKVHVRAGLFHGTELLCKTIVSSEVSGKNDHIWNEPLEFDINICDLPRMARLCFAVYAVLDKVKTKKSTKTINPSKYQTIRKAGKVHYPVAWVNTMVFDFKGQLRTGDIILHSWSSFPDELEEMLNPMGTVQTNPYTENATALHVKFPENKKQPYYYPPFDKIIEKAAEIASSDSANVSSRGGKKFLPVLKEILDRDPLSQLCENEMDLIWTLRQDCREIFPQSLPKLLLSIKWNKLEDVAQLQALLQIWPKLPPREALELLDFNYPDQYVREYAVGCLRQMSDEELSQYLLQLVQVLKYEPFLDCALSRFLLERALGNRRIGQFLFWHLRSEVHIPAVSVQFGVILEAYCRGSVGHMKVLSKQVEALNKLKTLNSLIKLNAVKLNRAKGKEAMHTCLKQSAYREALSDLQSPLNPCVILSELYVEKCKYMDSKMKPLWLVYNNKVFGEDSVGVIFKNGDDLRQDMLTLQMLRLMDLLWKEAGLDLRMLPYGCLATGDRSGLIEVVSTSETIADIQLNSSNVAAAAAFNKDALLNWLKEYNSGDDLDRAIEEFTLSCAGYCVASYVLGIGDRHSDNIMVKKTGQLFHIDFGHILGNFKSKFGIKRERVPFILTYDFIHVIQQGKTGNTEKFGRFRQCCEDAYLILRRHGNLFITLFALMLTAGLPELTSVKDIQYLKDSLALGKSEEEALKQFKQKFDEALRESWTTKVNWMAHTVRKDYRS
T4 sequence (P27986 whole entry partner): as the sequence (P27986 whole entry partner) above
T2 sequence (P48736 whole entry): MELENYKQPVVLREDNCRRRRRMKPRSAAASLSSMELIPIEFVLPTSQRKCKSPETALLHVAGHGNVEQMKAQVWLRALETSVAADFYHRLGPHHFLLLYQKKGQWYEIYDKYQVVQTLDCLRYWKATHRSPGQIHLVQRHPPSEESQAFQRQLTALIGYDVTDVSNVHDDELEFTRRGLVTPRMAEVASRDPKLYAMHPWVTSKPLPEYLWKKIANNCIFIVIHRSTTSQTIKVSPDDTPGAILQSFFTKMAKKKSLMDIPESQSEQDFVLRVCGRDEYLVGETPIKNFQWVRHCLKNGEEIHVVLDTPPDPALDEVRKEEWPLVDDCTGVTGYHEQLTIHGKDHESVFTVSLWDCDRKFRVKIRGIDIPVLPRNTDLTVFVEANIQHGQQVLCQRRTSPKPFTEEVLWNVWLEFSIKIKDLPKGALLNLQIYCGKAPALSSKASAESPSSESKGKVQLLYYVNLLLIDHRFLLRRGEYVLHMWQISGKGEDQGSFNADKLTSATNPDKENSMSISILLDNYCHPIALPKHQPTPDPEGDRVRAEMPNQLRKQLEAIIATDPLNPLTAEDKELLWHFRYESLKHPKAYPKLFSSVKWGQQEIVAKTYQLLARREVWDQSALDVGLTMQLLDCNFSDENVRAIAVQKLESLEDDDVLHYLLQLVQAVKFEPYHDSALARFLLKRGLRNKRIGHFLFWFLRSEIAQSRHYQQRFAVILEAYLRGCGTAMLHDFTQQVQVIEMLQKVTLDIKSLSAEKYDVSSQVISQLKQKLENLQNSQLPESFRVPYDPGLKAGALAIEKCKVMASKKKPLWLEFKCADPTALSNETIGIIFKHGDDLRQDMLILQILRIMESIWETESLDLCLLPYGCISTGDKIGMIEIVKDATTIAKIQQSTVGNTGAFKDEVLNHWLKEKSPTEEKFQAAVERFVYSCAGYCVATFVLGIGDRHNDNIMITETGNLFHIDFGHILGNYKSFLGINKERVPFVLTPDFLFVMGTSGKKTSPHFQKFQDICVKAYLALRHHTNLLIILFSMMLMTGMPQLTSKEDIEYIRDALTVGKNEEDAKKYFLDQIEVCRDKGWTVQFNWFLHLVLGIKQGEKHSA

Consider `Cc1noc(-c2c(N)ncnc2N[C@@H](C)c2nc3cccc(-c4cnn(C)c4)c3c(=O)n2C2CC2)n1` [Ex. 66, (S)-2-(1-((6-amino-5-(3-methyl-1,2,4-oxadiazol-5-yl)pyrimidin-4-yl)amino)ethyl)-3-cyclopropyl-5-(1-methyl-1H-pyrazol-4-yl)quinazolin-4(3H)-one], for which, in data set [1], the half-life at 5 μM was 66.4 min and the CLint scaled at 5 μM was 26.2 mL/min/kg. For the same molecule, in data set [2], the CL/F worked out at 2.36 L/h/kg, the AUC(0-t) came out at 423 ng·h/mL, the half-life was 58.8 min and the Vd amounted to 2.98 L/kg. Besides, in data set [2], the bioavailability was 96.2%. For the same molecule, on PI3K (p110α/p85α) (h), the pIC50 is 5.66. The pIC50 on PI3K (p120γ) (h) is 6.06. Besides, the pIC50 at PI3K (p110δ/p85α) (h) is 7.80. In data set [3], the CLint scaled at 5 μM is 15.2 mL/min/kg and the half-life at 5 μM was determined as 164 min. On PI3K (h) p110β/p85α, the pIC50 is 5.74.
Turning to `Cc1nnc(-c2c(N)ncnc2N[C@@H](C)c2nc3cccc(-c4cnn(C)c4)c3c(=O)n2-c2ccccc2)o1` [Ex. 69, (S)-2-(1-((6-amino-5-(5-methyl-1,3,4-oxadiazol-2-yl)pyrimidin-4-yl)amino)ethyl)-5-(1-methyl-1H-pyrazol-4-yl)-3-phenylquinazolin-4(3H)-one], in data set [1], the half-life at 5 μM turned out to be 138 min and the intrinsic clearance (CLint scaled) at 5 μM was 12.6 mL/min/kg. Also, in data set [2], the CL/F is reported as 0.90 L/h/kg, the AUC(0-t) stood at 1100 ng·h/mL, the half-life is 75 min and the Vd was 1.54 L/kg. The molecule further showed a bioavailability in data set [2] of 83%. Further, at PI3K (p110α/p85α) (h), the pIC50 was below 5.52. Besides, the pIC50 on PI3K (p120γ) (h) was 5.93. At PI3K (p110δ/p85α) (h), the pIC50 is 7.66. In data set [3], the CLint scaled at 5 μM was 9.99 mL/min/kg and the half-life at 5 μM was determined as 249 min. The pIC50 at PI3K (h) p110β/p85α is below 5.52.
In the case of `CC[C@H](Nc1ncnc(N)c1-c1nc(C)no1)c1nc2cccc(-c3cnn(C)c3)c2c(=O)n1C1CC1` [Ex. 71, (S)-2-(1-((6-amino-5-(3-methyl-1,2,4-oxadiazol-5-yl)pyrimidin-4-yl)amino)propyl)-3-cyclopropyl-5-(1-methyl-1H-pyrazol-4-yl)quinazolin-4(3H)-one], in data set [2], the CL/F came to 3.84 L/h/kg, the AUC(0-t) amounted to 256 ng·h/mL, the half-life is 64.2 min and the Vd came out at 4.9 L/kg. The same molecule yielded a bioavailability in data set [2] of 85.5%. Besides, at PI3K (p110α/p85α) (h), the pIC50 is 5.88. The pIC50 at PI3K (p120γ) (h) was 6.32. For the same molecule, on PI3K (p110δ/p85α) (h), the pIC50 was 7.80. Besides, on PI3K (h) p110β/p85α, the pIC50 was 6.12.
As to `Cc1noc(-c2c(N)ncnc2N[C@@H](C)c2nc3cccc(-c4cnn(C)c4)c3c(=O)n2-c2ccccc2)n1` [Ex. 68, (S)-2-(1-((6-amino-5-(3-methyl-1,2,4-oxadiazol-5-yl)pyrimidin-4-yl)amino)ethyl)-5-(1-methyl-1H-pyrazol-4-yl)-3-phenylquinazolin-4(3H)-one], in data set [1], the half-life at 5 μM came out at 73 min and the CLint scaled at 5 μM was 23.8 mL/min/kg. For the same molecule, in data set [2], the apparent clearance CL/F came to 0.35 L/h/kg, the AUC(0-t) amounted to 2690 ng·h/mL, the half-life is 108 min and the Vd stood at 0.89 L/kg. Further, in data set [2], the bioavailability is 70%. In addition, at PI3K (p110α/p85α) (h), the pIC50 was 5.85. The pIC50 on PI3K (p120γ) (h) is 7.04. Moreover, on PI3K (p110δ/p85α) (h), the pIC50 is 8.40. Besides, in data set [3], the CLint scaled at 5 μM was 17.6 mL/min/kg and the half-life at 5 μM was 141 min. Besides, the pIC50 at PI3K (h) p110β/p85α is 5.93.
Consider `CC[C@H](Nc1ncnc(N)c1-c1nnc(C)o1)c1nc2cccc(-c3cnn(C)c3)c2c(=O)n1C1CC1` [Ex. 72, (S)-2-(1-((6-amino-5-(5-methyl-1,3,4-oxadiazol-2-yl)pyrimidin-4-yl)amino)propyl)-3-cyclopropyl-5-(1-methyl-1H-pyrazol-4-yl)quinazolin-4(3H)-one], for which, in data set [2], the CL/F came to 3.95 L/h/kg, the AUC(0-t) turned out to be 270 ng·h/mL, the half-life was 58.8 min and the Vd was 3.85 L/kg. Moreover, the bioavailability in data set [2] is 35.9%. Also, the pIC50 at PI3K (p110α/p85α) (h) is below 5.52. Also, at PI3K (p120γ) (h), the pIC50 was below 5.52. At PI3K (p110δ/p85α) (h), the pIC50 is 6.85. Also, the pIC50 at PI3K (h) p110β/p85α is below 5.52.

In general, CLint scaled refers to the rate of metabolic loss divided by the concentration. By CL/F is commonly meant the apparent clearance, not corrected for the fraction that reaches the circulation. What is called AUC(0-t) is the area under the concentration-time curve up to a stated or last time point. As a reminder, the bioavailability is the share of a dose that reaches the circulation, judged against a reference dose that is usually intravenous. Broadly, the pIC50 is the IC50 on a negative log10 scale, so that one unit is a factor of ten.
